# Measurements as given in the supplement of paper PMC8671470.
# Test system: THP-1
# Assay: cell viability (% survival relative to DMSO control, bortezomib = 0%); higher = less cytotoxic
# Conditions: 10 nM; 72 h
# Procedure, shortened: (§1)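 Seeding density for each of the 10 AML and 5 CML cell lines was titrated to the linear growth range. Cells went into 384-well plates pre-printed in duplicate with compounds at 1, 10, 100, 1000 or 10000 nM and were held for 72 h at 37 °C with 5% CO2. CellTiter-Glo luminescence then provided the readout. Percent survival is expressed relative to vehicle at 100% and a 10 µM positive control at 0%, averaged over duplicates.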
row,SMILES,cell viability [%]
1,O=C1N[C@@H]2[C@@H](O)[C@@H](O)[C@H](O)[C@@H](CO)N2C1=O [Kifunensine],95.2
2,CC(C)(CCCCCCCCCCC(C)(C)CC(=O)O)CC(=O)O [MEDICA 16],94.8
3,Cc1nnc(-c2ccc(N3CCC(Oc4ccccc4C(F)(F)F)CC3)nn2)s1 [MF-438],110
4,CC(C)c1ccc2c(c1)c(SC(C)(C)C)c(CC(C)(C)C(=O)O)n2Cc1ccc(Cl)cc1 [MK-886],101
5,O=C(CCl)N(CCCNC(=O)C(F)(F)F)c1ccc([N+](=O)[O-])cc1 [ML175],102
6,CN(C)C(=N)NC(=N)N [Metformin],95.4
7,Cl.OC[C@H]1NC[C@H](O)[C@@H](O)[C@H]1O [Migalastat],99.1
8,OCCN1C[C@H](O)[C@@H](O)[C@H](O)[C@H]1CO [Miglitol],106
9,"CCCCCCCCCCCCC/C=C/[C@@H](O)[C@H](CO)N(C)C [N,N-Dimethylsphingosine]",100
10,CCCCCCCNC=O [N-Heptyl-Formamide],97.1

# Same assay, conditions: 100 nM; 72 h
row,SMILES,cell viability [%]
1,O=C(Oc1ccc([N+](=O)[O-])cc1)N1CCC(C(O)(c2ccc3c(c2)OCO3)c2ccc3c(c2)OCO3)CC1 [JZL184],95.4
2,O=C1N[C@@H]2[C@@H](O)[C@@H](O)[C@H](O)[C@@H](CO)N2C1=O [Kifunensine],97.7
3,CC(C)(CCCCCCCCCCC(C)(C)CC(=O)O)CC(=O)O [MEDICA 16],97.2
4,Cc1nnc(-c2ccc(N3CCC(Oc4ccccc4C(F)(F)F)CC3)nn2)s1 [MF-438],96.5
5,CC(C)c1ccc2c(c1)c(SC(C)(C)C)c(CC(C)(C)C(=O)O)n2Cc1ccc(Cl)cc1 [MK-886],98.2
6,O=C(CCl)N(CCCNC(=O)C(F)(F)F)c1ccc([N+](=O)[O-])cc1 [ML175],91.9
7,CN(C)C(=N)NC(=N)N [Metformin],93
8,Cl.OC[C@H]1NC[C@H](O)[C@@H](O)[C@H]1O [Migalastat],104
9,OCCN1C[C@H](O)[C@@H](O)[C@H](O)[C@H]1CO [Miglitol],100
10,"CCCCCCCCCCCCC/C=C/[C@@H](O)[C@H](CO)N(C)C [N,N-Dimethylsphingosine]",105
11,CCCCCCCNC=O [N-Heptyl-Formamide],97.1

# Same assay, conditions: 1000 nM; 72 h
row,SMILES,cell viability [%]
1,O=C(Oc1ccc([N+](=O)[O-])cc1)N1CCC(C(O)(c2ccc3c(c2)OCO3)c2ccc3c(c2)OCO3)CC1 [JZL184],101
2,O=C1N[C@@H]2[C@@H](O)[C@@H](O)[C@H](O)[C@@H](CO)N2C1=O [Kifunensine],89
3,CC(C)(CCCCCCCCCCC(C)(C)CC(=O)O)CC(=O)O [MEDICA 16],96.5
4,Cc1nnc(-c2ccc(N3CCC(Oc4ccccc4C(F)(F)F)CC3)nn2)s1 [MF-438],102
5,CC(C)c1ccc2c(c1)c(SC(C)(C)C)c(CC(C)(C)C(=O)O)n2Cc1ccc(Cl)cc1 [MK-886],96.8
6,O=C(CCl)N(CCCNC(=O)C(F)(F)F)c1ccc([N+](=O)[O-])cc1 [ML175],94.2
7,CN(C)C(=N)NC(=N)N [Metformin],101
8,Cl.OC[C@H]1NC[C@H](O)[C@@H](O)[C@H]1O [Migalastat],98.7
9,OCCN1C[C@H](O)[C@@H](O)[C@H](O)[C@H]1CO [Miglitol],95.9
10,"CCCCCCCCCCCCC/C=C/[C@@H](O)[C@H](CO)N(C)C [N,N-Dimethylsphingosine]",89.7
11,CCCCCCCNC=O [N-Heptyl-Formamide],104

# Same assay, conditions: 10000 nM; 72 h
row,SMILES,cell viability [%]
1,O=C(Oc1ccc([N+](=O)[O-])cc1)N1CCC(C(O)(c2ccc3c(c2)OCO3)c2ccc3c(c2)OCO3)CC1 [JZL184],96.2
2,O=C1N[C@@H]2[C@@H](O)[C@@H](O)[C@H](O)[C@@H](CO)N2C1=O [Kifunensine],104
3,CC(C)(CCCCCCCCCCC(C)(C)CC(=O)O)CC(=O)O [MEDICA 16],99.3
4,Cc1nnc(-c2ccc(N3CCC(Oc4ccccc4C(F)(F)F)CC3)nn2)s1 [MF-438],98.1
5,CC(C)c1ccc2c(c1)c(SC(C)(C)C)c(CC(C)(C)C(=O)O)n2Cc1ccc(Cl)cc1 [MK-886],108
6,O=C(CCl)N(CCCNC(=O)C(F)(F)F)c1ccc([N+](=O)[O-])cc1 [ML175],-2.38
7,CN(C)C(=N)NC(=N)N [Metformin],94.4
8,Cl.OC[C@H]1NC[C@H](O)[C@@H](O)[C@H]1O [Migalastat],90.9
9,OCCN1C[C@H](O)[C@@H](O)[C@H](O)[C@H]1CO [Miglitol],101
10,"CCCCCCCCCCCCC/C=C/[C@@H](O)[C@H](CO)N(C)C [N,N-Dimethylsphingosine]",61.7
11,CCCCCCCNC=O [N-Heptyl-Formamide],96.7

# Test system: KCL-22
# Assay: as above
# Conditions: 1 nM; 72 h
# Procedure, shortened: as §1
row,SMILES,cell viability [%]
1,O=C(Oc1ccc([N+](=O)[O-])cc1)N1CCC(C(O)(c2ccc3c(c2)OCO3)c2ccc3c(c2)OCO3)CC1 [JZL184],90.8
2,O=C1N[C@@H]2[C@@H](O)[C@@H](O)[C@H](O)[C@@H](CO)N2C1=O [Kifunensine],107
3,CC(C)(CCCCCCCCCCC(C)(C)CC(=O)O)CC(=O)O [MEDICA 16],119
4,Cc1nnc(-c2ccc(N3CCC(Oc4ccccc4C(F)(F)F)CC3)nn2)s1 [MF-438],103
5,CC(C)c1ccc2c(c1)c(SC(C)(C)C)c(CC(C)(C)C(=O)O)n2Cc1ccc(Cl)cc1 [MK-886],108
6,O=C(CCl)N(CCCNC(=O)C(F)(F)F)c1ccc([N+](=O)[O-])cc1 [ML175],113
7,CN(C)C(=N)NC(=N)N [Metformin],98.2
8,Cl.OC[C@H]1NC[C@H](O)[C@@H](O)[C@H]1O [Migalastat],95.6
9,OCCN1C[C@H](O)[C@@H](O)[C@H](O)[C@H]1CO [Miglitol],91.5
10,"CCCCCCCCCCCCC/C=C/[C@@H](O)[C@H](CO)N(C)C [N,N-Dimethylsphingosine]",95.8
11,CCCCCCCNC=O [N-Heptyl-Formamide],101

# Same assay, conditions: 10 nM; 72 h
row,SMILES,cell viability [%]
1,O=C(Oc1ccc([N+](=O)[O-])cc1)N1CCC(C(O)(c2ccc3c(c2)OCO3)c2ccc3c(c2)OCO3)CC1 [JZL184],108
2,O=C1N[C@@H]2[C@@H](O)[C@@H](O)[C@H](O)[C@@H](CO)N2C1=O [Kifunensine],104
3,CC(C)(CCCCCCCCCCC(C)(C)CC(=O)O)CC(=O)O [MEDICA 16],97.4
4,Cc1nnc(-c2ccc(N3CCC(Oc4ccccc4C(F)(F)F)CC3)nn2)s1 [MF-438],99.6
5,CC(C)c1ccc2c(c1)c(SC(C)(C)C)c(CC(C)(C)C(=O)O)n2Cc1ccc(Cl)cc1 [MK-886],110
6,O=C(CCl)N(CCCNC(=O)C(F)(F)F)c1ccc([N+](=O)[O-])cc1 [ML175],118
7,CN(C)C(=N)NC(=N)N [Metformin],98.9
8,Cl.OC[C@H]1NC[C@H](O)[C@@H](O)[C@H]1O [Migalastat],90.2
9,OCCN1C[C@H](O)[C@@H](O)[C@H](O)[C@H]1CO [Miglitol],108
10,"CCCCCCCCCCCCC/C=C/[C@@H](O)[C@H](CO)N(C)C [N,N-Dimethylsphingosine]",98
11,CCCCCCCNC=O [N-Heptyl-Formamide],109
